Results: patent publication US20150204836A1, “SOLUBLE METAL SENSOR COMPOUNDS AND METHODS FOR MAKING AND USING THE SAME” (UNIVERSITY OF UTAH RESEARHC FOUNDATION, priority 2012, published 2015)
Converted amounts (≈) assume the structure as drawn.

Key:
[1] = Solubility in various solvents; format: physicochemical
Method: Compound 1 is a dark red color solid with solubility in water about 30 μM, much higher than detection concentration (0.3˜5 μM) that is commonly used in fluorometer or portable detector. Various solvents have been tested in the following table. For transferring Compound 1 as aliquots, ethanol-dichloromethane (DCM) (5:1) is a good solvent giving good solubility and easy evaporation of solvent.

[2] = Spectral properties (absorbance, extinction coefficient, emission) in various solvents; format: physicochemical
[3] = Storage stability of metal sensor solution in HDPE/LDPE squeeze bottles; format: physicochemical; conditions: 7.4 μM in 50% glycerol-water, on shelf in room and outside in shade
Method: High density polyethylene (HDPE) and low density polyethylene (LDPE) squeeze bottles were used to store metal sensor solutions (7.4 μM Compound 1). One pair of HDPE and LDPE bottles was stored on shelf in room, and the other pair of bottles was stored outside in shade. Compound 1 is very stable in 50% glycerol-water without obvious change of absorbance and fluorescence spectra at least for 6 weeks.

[4] = pH tuning study, selectivity for Hg^2+ over 11 other metal ions (fluorescence quenching); conditions: 1.0 μM Compound 1, 11 metal ions each 5 μM, 2.0 μM Hg^2+, pH 4, 5, 6, 7
Method: The selectivity of the sensor Compound 1 for Hg^2+ over environmentally relevant alkali, alkaline earth and transition metal ions (K^+, […], Mg^2+, Ca^2+, Ba^2+, Zn^2+, Fe^2+, Ni^2+, Cd^2+, Pb^2+, Cu^2+) was investigated in different pH solution pH=4, 5, NaOAc 0.02M buffer, pH=6, PBS 0.02M buffer, pH 7 water (panel A pH 4.0, panel B pH 5.0, panel C pH 6.0, panel D pH 7.0). Fluorescence spectra of a 1.0 μM Compound 1 solution in the absence (A line) and presence (B line) of a mixture of all 11 metal ions (each 5 μM).

[5] = Temperature effect on fluorescence quenching by Hg^2+; conditions: one point assay, 1.0 μM Compound 1, 2.0 μM Hg^2+, 596 nm, varying temperatures
Excerpt: New sensors could be used to test water sources in quite different locations, at different seasons, and from diverse water sources.

[6] = Linear fluorescence detection response and detection limit for Hg^2+; conditions: 0.3 μM of Compound 1; corresponding to a 1% decrease of fluorescence intensity
Method: Linear detection response for Hg^2+ was determined/established for several concentrations of Compound 1. A linear detection response of Hg^2+ in the range 0 to 18 ppb for 0.3 μM of Compound 1 and a detection limit of 0.4 ppb for Hg^2+, corresponding to a 1% decrease of fluorescence intensity was determined (FIG. 2A).

**Q.** Which solubility ([1]; 15% glycerol in water, aqueous with cosolvent or surfactant or cyclodextrin, 15% Glycerol-H2O) does the source give for `Cc1cn([C@@H]2C[C@@H](O)[C@H](CNC(=O)CCN3C(=O)c4cc(Oc5cccnc5)c5c6c(Oc7cccnc7)cc7c8c(cc(Oc9cccnc9)c(c9c(Oc%10cccnc%10)cc(c4c59)C3=O)c86)C(=O)N(CCC(=O)NC[C@H]3O[C@@H](n4cc(C)c(=O)[nH]c4=O)C[C@@H]3O)C7=O)O2)c(=O)[nH]c1=O` [Compound 1, N-(((2R,3S,5R)-3-hydroxy-5-(5-methyl-2,4-dioxo-3,4-dihydropyrimidin-1(2H)-yl)tetrahydrofuran-2-yl)methyl)-3-(9-(3-((((2S,3R,5S)-3-hydroxy-5-(5-methyl-2,4-dioxo-3,4-dihydropyrimidin-1(2H)-yl)tetrahydrofuran-2-yl)methyl)amino)-3-oxopropyl)-1,3,8,10-tetraoxo-5,6,12,13-tetrakis(pyridin-3-yloxy)-9,10-dihydroanthra[2,1,9-def:6,5,10-d′e′f′]diisoquinolin-2(1H,3H,8H)-yl)propanamide] here?
**A.** ~50 µM (≈ 67.7 µg/mL)

**Q.** And the solubility ([1]; 30% glycerol in water, aqueous with cosolvent or surfactant or cyclodextrin, 30% Glycerol-H2O)?
**A.** > 86 µM

**Q.** What about the solubility ([1]; 30% propylene glycol in water, aqueous with cosolvent or surfactant or cyclodextrin, 30% Propylene glycol-H2O) of the same compound?
**A.** > 86 µM

**Q.** And the solubility ([1]; 50% glycerol in water, aqueous with cosolvent or surfactant or cyclodextrin, 50% Glycerol-H2O)?
**A.** > 86 µM

**Q.** What about the solubility ([1]; 50% propylene glycol in water, aqueous with cosolvent or surfactant or cyclodextrin, 50% Propylene glycol-H2O) of the same compound?
**A.** > 86 µM

**Q.** And the solubility ([1]; DMF, organic solvent or mixture)?
**A.** > 200 µM

**Q.** And the solubility ([1]; DMF-water (7:3), organic solvent or mixture, DMF-H2O (7:3))?
**A.** > 200 µM

**Q.** What about the solubility ([1]; ethanol, organic solvent or mixture) of the same compound?
**A.** ~100 µM (≈ 135 µg/mL)

**Q.** What about the solubility ([1]; ethanol-dichloromethane (5:1), organic solvent or mixture, Ethanol-DCM (5:1)) of the same compound?
**A.** > 342 µM

**Q.** What about the solubility ([1]; isopropanol, organic solvent or mixture) of the same compound?
**A.** > 86 µM

**Q.** And the solubility ([1]; water)?
**A.** ~30 µM (≈ 40.6 µg/mL)

**Q.** And the “ε (extinction coefficient)” value ([2]; 15% Glycerol-H2O)?
**A.** 15000 M⁻¹ cm⁻¹

**Q.** And the “λmax,abs” value ([2]; 15% Glycerol-H2O)?
**A.** 564 nm

**Q.** What about the “λmax,flu” value ([2]; 15% Glycerol-H2O) of the same compound?
**A.** 598 nm

**Q.** What about the “ε (extinction coefficient)” value ([2]; 30% Glycerol-H2O) of the same compound?
**A.** 16970 M⁻¹ cm⁻¹

**Q.** What about the “λmax,abs” value ([2]; 30% Glycerol-H2O) of the same compound?
**A.** 566 nm

**Q.** And the “λmax,flu” value ([2]; 30% Glycerol-H2O)?
**A.** 598 nm

**Q.** What about the “ε (extinction coefficient)” value ([2]; 50% Glycerol-H2O) of the same compound?
**A.** 16330 M⁻¹ cm⁻¹

**Q.** And the “λmax,abs” value ([2]; 50% Glycerol-H2O)?
**A.** 565 nm

**Q.** And the “λmax,flu” value ([2]; 50% Glycerol-H2O)?
**A.** 598 nm

**Q.** What about the “ε (extinction coefficient)” value ([2]; DMF-H2O (7:3)) of the same compound?
**A.** 18900 M⁻¹ cm⁻¹

**Q.** And the “λmax,abs” value ([2]; DMF-H2O (7:3))?
**A.** 561 nm

**Q.** What about the “λmax,flu” value ([2]; DMF-H2O (7:3)) of the same compound?
**A.** 595 nm

**Q.** And the “ε (extinction coefficient)” value ([2]; Ethanol)?
**A.** 12830 M⁻¹ cm⁻¹

**Q.** And the “λmax,abs” value ([2]; Ethanol)?
**A.** 557 nm

**Q.** What about the “λmax,flu” value ([2]; Ethanol) of the same compound?
**A.** 594 nm

**Q.** And the “ε (extinction coefficient)” value ([2]; Ethanol-DCM (5:1))?
**A.** 16000 M⁻¹ cm⁻¹

**Q.** What about the “λmax,abs” value ([2]; Ethanol-DCM (5:1)) of the same compound?
**A.** 558 nm

**Q.** What about the “λmax,flu” value ([2]; Ethanol-DCM (5:1)) of the same compound?
**A.** 595 nm

**Q.** And the “ε (extinction coefficient)” value ([2]; H2O)?
**A.** 12375 M⁻¹ cm⁻¹

**Q.** And the “λmax,abs” value ([2]; H2O)?
**A.** 563 nm

**Q.** What about the “λmax,flu” value ([2]; H2O) of the same compound?
**A.** 595 nm

**Q.** And the “ε (extinction coefficient)” value ([2]; Isopropanol)?
**A.** 15200 M⁻¹ cm⁻¹

**Q.** And the “λmax,abs” value ([2]; Isopropanol)?
**A.** 561 nm

**Q.** And the “λmax,flu” value ([2]; Isopropanol)?
**A.** 594 nm

**Q.** What about the “stable without obvious change of absorbance and fluorescence spectra” value [3] of the same compound?
**A.** ≥ 6 weeks

**Q.** What about the “fluorescence response on addition of Hg^2+ to mixture of 11 metal ions” value [4] of the same compound?
**A.** fluorescence quenching

**Q.** What about the “temperature effect on quenching efficiency” value [5] of the same compound?
**A.** small, but potentially significant, effect

**Q.** What about the “detection limit for Hg^2+” value [6] of the same compound?
**A.** 0.4 ppb
